Laboratory results published in the METLIN SMRT retention time set (Domingo-Almenara et al. 2019).

Test: gradient 5% acetonitrile 3 min, to 50% in 2 min, to 85% in 15 min, held 3 min, 100 µL/min
Details: column: Zorbax Extend-C18 2.1 x 50 mm; eluents: water / acetonitrile, 0.1% formic acid
Procedure, shortened: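 Pure standards were analyzed in mixtures of ~100 molecules using HPLC coupled to a quadrupole time-of-flight mass spectrometer, in both positive and negative ionization mode. Separation used a Zorbax Extend-C18 column (2.1 × 50 mm, 1.8 μm) at 100 μL/min, with water and acetonitrile each containing 0.1% formic acid. Dead and dwell volumes were 40 μL and 900 μL, and data were collected over 3 months. Retention time was read from computationally picked adduct peaks, each inspected manually.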

| SMILES | RP-LC retention time |
| --- | --- |
| COc1cc(OC)cc(-c2nc(C3CC(=O)N(c4ccc(Cl)cc4)C3)no2)c1 (stereo not drawn) | 1290 s |
| Nc1ccc(Nc2ccccc2)c(S(=O)(=O)O)c1 | 639 s |
| CC(C)CCNC(=O)C1CCN(c2nc3ccsc3c(=O)n2-c2ccccc2)CC1 | 838 s |
| CCc1ccc(OCC(=O)Nc2nnc(SCc3nnc(-c4ccccc4)o3)s2)cc1 | 1010 s |
| CCc1ccc(-c2csc(Nc3ccc(S(=O)(=O)Nc4cc(OC)nc(OC)n4)cc3)n2)cc1 | 1150 s |
| COc1cc(CNC(=O)c2cn3cc(C)ccc3n2)cc(OC)c1 | 604 s |
| CN1C(=O)c2cccn2CC1CNC(=O)NCCc1ccccc1 (stereo not drawn) | 661 s |
| COc1ccc(C2OC(c3cc(Cl)ccc3OC(C)=O)=NN2C(C)=O)cc1 (stereo not drawn) | 956 s |
| COc1ccc(-c2nnc(N3CCC(C(=O)NC4CCCCC4)CC3)o2)cc1 | 811 s |
| CNC(=O)C1CCCN(C(=O)Nc2ccc(NC(=O)Nc3ccccc3)cc2)C1 (stereo not drawn) | 663 s |
| Cc1nc(N2CCOCC2)c2c(C(=O)NCc3ccc(F)cc3)c(C)oc2n1 | 702 s |
| COCC(CN1CCN(C2=NS(=O)(=O)c3ccccc32)CC1)OC(=O)c1ccc(C)cc1 (stereo not drawn) | 646 s |
| Cc1nc2cc(-c3noc(-c4ccc5c(c4)OCO5)n3)ccc2o1 | 1050 s |
| Cn1cc(C(=O)N2CCCCCCNC(=O)[C@@H]3CCC[C@@H]32)cn1 | 622 s |
| Cc1nn(CC(=O)N2CCCCCC2)c(=O)c2nc(-c3ccccc3)sc12 | 872 s |
| O=C(NC1CC1)C1CCCN(S(=O)(=O)c2cc(-c3noc(C4CCCC4)n3)cs2)C1 (stereo not drawn) | 972 s |
| Cc1ccc(NC(=O)C2(C)Oc3cccnc3N(C)C2=O)c(C)c1 (stereo not drawn) | 816 s |
| CC1CCN(S(=O)(=O)c2cc(-c3ccc(N4CCCC(C)C4)nn3)cs2)CC1 (stereo not drawn) | 915 s |
| O=C(Cn1cccc(-c2nc(-c3ccc(F)cc3)no2)c1=O)NCC1CCCO1 (stereo not drawn) | 706 s |
| O=C(NCc1ccccc1)c1ccc(CN2CCN(Cc3ccc(F)cc3)C(=O)C2=O)cc1 | 774 s |
| CCNC(=O)C1CCCN(c2nc3ncn(CC(=O)Nc4cc(C)cc(C)c4)c(=O)c3s2)C1 (stereo not drawn) | 716 s |
| COc1ccc(Nc2c(-c3ccc(C)cc3)nc3ncccn23)cc1OC | 683 s |

| SMILES | RP-LC retention time |
| --- | --- |
| Cc1ccccc1CNC(=O)CCC1CCN(c2cc(NC3CC3)ncn2)CC1 | 585 s |
| CO[C@@H]1[C@@H](OC(N)=O)[C@H](O)[C@H](Oc2ccc3c(O)c(NC(=O)c4ccc(O)c(CC=C(C)C)c4)c(=O)oc3c2C)OC1(C)C | 979 s |
| CN(C(=O)Cc1ccc(Cl)c(Cl)c1)C(CN1CCCC1)c1cccc(OCC(=O)O)c1 (stereo not drawn) | 770 s |
| CCOC(=O)c1ccc(Nc2c(C(=O)N3CCCCC3C)cnc3nc(C)ccc23)cc1 (stereo not drawn) | 653 s |
| COc1ccc(NS(=O)(=O)c2cc(-c3[nH]ncc3C(=O)N3CCCC3)oc2C)cc1 | 676 s |
| Cc1scc2nc(C3CCC3)nc(N3CCC(C(=O)N4CCN(c5ccccn5)CC4)CC3)c12 | 587 s |
| Cc1nc(-c2noc(-c3cccnc3)n2)cn1CC(=O)Nc1ccc(F)cc1 | 687 s |
| O=C(NCc1ccco1)N(c1ccccc1)c1ccccc1 | 810 s |
| Cc1nn(CC(=O)NCCN2CCCC2)c(=O)c2cc(-c3ccccc3)nn12 | 631 s |
| COCCN1CCn2cc(S(=O)(=O)Nc3cccc(Cl)c3)cc2C1=O | 718 s |
| COc1ccc(NC(=O)C2CCc3nc(N4CCCCC4)ncc3C2)cc1C(F)(F)F (stereo not drawn) | 894 s |
| COc1ccc(-c2cc3nn(CC(=O)N4CCC(C)CC4)c(=O)n3c(C)n2)cc1 | 894 s |
| CCCn1c(=O)sc2cc(S(=O)(=O)N3CCC(C(=O)Nc4cccc(F)c4)CC3)ccc21 | 983 s |
| Cc1ccc(-c2noc(-c3ccccc3S(=O)(=O)NCCN3CCC(C)CC3)n2)cc1 | 771 s |
| CC(C)(C)CC(=O)N1CC2CN(S(=O)(=O)c3cccc(F)c3)CC(C1)O2 | 834 s |
| CC(C)Cn1c(=O)c(N2CCN(S(=O)(=O)Cc3ccccc3)CC2)nc2ccncc21 | 740 s |
| Cc1nnc(-c2c(S(=O)(=O)N3CCC(Cc4ccccc4)CC3)c(C)n(C)c2C)o1 | 931 s |
| CCOC(=O)N1CCN(C(=O)CSc2ccc(-n3cccn3)nn2)CC1 | 657 s |
| CCOc1ccc(CC(=O)OCn2nnc3ccccc3c2=O)cc1 | 914 s |
| Cc1ccc(NC(=O)NC2CCN(C(=O)N3C[C@H]4C[C@H](C3)[C@H]3CCCC(=O)N3C4)CC2)cc1C | 702 s |
| Cc1nsc2ncc(C(=O)N3CCOCC3)c(N3CCC(C(=O)Nc4ccc(F)cc4Cl)CC3)c12 | 811 s |
